Source: the Kinase Knowledgebase extract (Sharma et al. 2016)

biological target: PIK3CB;PIK3CG;PIK3CD;PIK3CA (human) (UniProt P48736); assay: Enzyme Assay

SMILES | IC50 [µM]
O=C(c1nn([C@H]2CCCN(C3CCOCC3)C2)c2c1CS(=O)(=O)c1c(F)cccc1-2)N1CCOCC1 | 0.013
O=C(c1nn([C@H]2CCCN(CC3CCOCC3)C2)c2c1CS(=O)(=O)c1ccccc1-2)N1CCOCC1 | 0.025
O=C(c1nn(C2CCCN(CCC(C(F)(F)F)C(F)(F)F)C2)c2c1CS(=O)(=O)c1ccccc1-2)N1CCOCC1 (stereo not given) | 0.679
O=C(c1nn(-c2ccccc2)c2c1CS(=O)(=O)c1sccc1-2)N1CCOCC1 | 1.7
O=C(c1nn(Cc2ccccc2)c2c1CS(=O)(=O)c1ccccc1-2)N1CCOCC1 | 1.19
CC(C)(C)OC(=O)N1CCCC(n2nc(C(=O)N3CCOCC3)c3c2-c2ccccc2S(=O)(=O)C3)CC1 (stereo not given) | 0.824
COc1cccc(-n2nc(C(=O)N3CCOCC3)c3c2-c2ccccc2S(=O)(=O)C3)c1 | 1.32
CC1CCC(n2nc(C(=O)N3CCOCC3)c3c2-c2ccccc2S(=O)(=O)C3)CC1 (stereo not given) | 0.426
CN(C)c1cccc(-n2nc(C(=O)N3CCOCC3)c3c2-c2ccccc2S(=O)(=O)C3)c1 | 4.72
O=C(c1nn(-c2ccc(-c3ccccc3)cc2)c2c1CS(=O)(=O)c1ccccc1-2)N1CCOCC1 | 10.3
CN(C)Cc1ccc(-n2nc(C(=O)N3CCOCC3)c3c2-c2ccccc2S(=O)(=O)C3)cc1 | 0.043
O=C(c1nn(-c2ccc3[nH]ncc3c2)c2c1CS(=O)(=O)c1ccccc1-2)N1CCOCC1 | 1.64
Cn1cc(-n2nc(C(=O)N3CCOCC3)c3c2-c2ccsc2S(=O)(=O)C3)ccc1=O | 2.69
O=C(c1nn([C@@H]2CCCN(CCF)C2)c2c1CS(=O)(=O)c1ccccc1-2)N1CCOCC1 | 7.97
O=C(c1nn(-c2ccc(CN3CC(F)C3)cc2)c2c1CS(=O)(=O)c1ccccc1-2)N1CCOCC1 | 0.229
